MIC and IC50 data for 13 compounds are collected here from patent US20240166612A1, “ARYLTHIOETHER ACETAMIDE AND RELATED COMPOUNDS AND THEIR USE IN TREATING MEDICAL CONDITIONS” (X-Biotix Therapeutics, Inc., priority 2021, published 2024).

One may read the MIC as the least concentration at which growth counts as inhibited. The term IC50 denotes the concentration that gives 50% inhibition.

Each structure is given as a SMILES string. Values after ≈ are worked out from the molar mass of the structure shown.

One test has as its system P. aeruginosa LESB58. Nature of the test: Broth microdilution MIC, P. aeruginosa LESB58. To be noted: Pseudomonas aeruginosa; P. aeruginosa LESB58 clinical isolate, colistin-resistant, 37° C., 18 h. It is filed as cell-based.
In a further test the test system is P. aeruginosa PAO397. Nature of the test: Broth microdilution MIC, P. aeruginosa PAO397. Format: cell-based. To be noted: Pseudomonas aeruginosa, PAO397, 18 h, read-out: PAO397 KO MIC. A general note: Broth dilution looks for growth in wells or tubes with falling amounts of substance.
The subject of test [1] is P. aeruginosa PAO1 ΔmexABoprM. Nature of the test: Broth microdilution MIC, P. aeruginosa PAO1 ΔmexABoprM. It is filed as cell-based. The conditions noted are these: Pseudomonas aeruginosa, PAO1, 18 h, read-out: PAO1 KO MIC. Here is the method: Exemplary compounds from the above Examples were tested to determine their minimum inhibitory concentration (MIC) for exemplary strains of Escherichia and Pseudomonas bacteria using broth microdilution methods. Assay procedures and results are described below.
Broth microdilution assays were conducted according to Clinical and Laboratory Standards Institute guidelines (CLSI, M07-A^11: Clinical and Laboratory Standards Institute. Methods for Dilution Antimicrobial Susceptibility Tests for Bacteria that Grow Aerobically; Approved Standard-11th Edition. Wayne, PA: CLSI, 2018). Briefly, bacterial suspensions were adjusted to a density equivalent to a 0.5 McFarland standard and diluted in sterile, cation-adjusted Mueller-Hinton broth (Beckton Dickinson) to yield a final inoculum between 2×10^5 and 8×10^5 colony-forming units (CFU)/mL. An inoculum volume of 98 μL was added to wells containing 2 μL of 2-fold serial dilutions of drug (prepared in DMSO). All inoculated microdilution trays were incubated in ambient air at 37° C. for 18 h. […] Performance of the assay was monitored by the use of laboratory quality-control strains (S. aureus ATCC 29213 and P. aeruginosa ATCC 27853) and levofloxacin, a compound with a defined MIC spectrum, in accordance with CLSI guidelines (CLSI, M100Ed29: Clinical and Laboratory Standards Institute. Performance Standards for Antimicrobial Susceptibility Testing, 29th Edition. Wayne, PA: CLSI, 2018).
Multiple enterobacteriaceae strains were tested, including both wild-type strains and multi-drug resistance pump deficient mutants. Specific strains tested included the following: • Wild-type P. aeruginosa PAO1, • P. aeruginosa PAO1 ΔmexABoprM—Disabled multi-drug efflux system Δ(MexAB-OprM), • P. aeruginosa PAO397—PAO1Δ(mexAB-oprM) Δ(mexCD-oprJ) Δ(mexEF-oprN) Δ(mexJK) Δ(mexXY) ΔopmH, • P. aeruginosa LESB58—Clinical isolate; colistin-resistant, isolated in the United Kingdom in 1988 from a patient with cystic fibrosis • E. coli JW0452-3 (BW25113 JacrA::kan)—Disabled multi-drug efflux system (AcrAB-TolC).
Experimental results are provided in Table 11, which provides MIC values for wild-type P. aeruginosa PAO1 (“PAO1 WT MIC”), P. aeruginosa PAO ΔmexABoprM (“PAO1 KO MIC”), P. aeruginosa PAO397 (“PAO397 KO MIC”), P. aeruginosa LESB58 (“LESB58”), and E. coli JW0452-3 (BW25113 JacrA::kan) (“E. coli KO MIC”).

Test [2] addresses T1, recombinant LpxA enzyme (P. aeruginosa) (Pseudomonas aeruginosa, UniProt Q9X6P4).
T1 sequence (Q9X6P4 1-258): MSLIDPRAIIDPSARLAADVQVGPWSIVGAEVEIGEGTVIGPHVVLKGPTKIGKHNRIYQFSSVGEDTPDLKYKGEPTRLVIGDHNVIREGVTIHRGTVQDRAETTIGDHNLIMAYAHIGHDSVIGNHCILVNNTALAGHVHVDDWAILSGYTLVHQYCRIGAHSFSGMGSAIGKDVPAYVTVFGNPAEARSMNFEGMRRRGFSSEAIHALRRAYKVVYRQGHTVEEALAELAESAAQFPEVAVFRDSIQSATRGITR
In words: LpxA in vitro substrate acylation assay with RapidFire MS analysis (P. aeruginosa). Format: biochemical. The conditions noted are these: P. aeruginosa enzyme 0.5 nM, PaACP-C10, 30 min. Here is the method:
Exemplary compounds from the above Examples were tested for ability to inhibit LpxA activity using an in vitro substrate acylation assay with RapidFire™ MS analysis. Assay procedures and results are described below.
Reactions were carried out in a final volume of 30 μL with 25 mM HEPES (pH 7.3), 150 mM NaCl, 2 mM DTT, 0.01% BSA, 5 μM UDP-GlcNac, recombinant LpxA enzyme (0.5 nM P. aeruginosa or 1.0 nM E. coli, both produced at Evotec), 0.5 μM acyl-transfer reagent (decanoyl P. aeruginosa acyl-carrier protein [PaACP-C10] or myristoyl E. coli acyl-carrier protein [EcACP-C1-4], both produced at Evotec), and 1% DMSO containing test compound. After 30 min incubation at room temperature, reactions were stopped by addition of 30 μL of 10% TCA in water.
Samples were centrifuged (4350 rpm, 4° C., 5 min), and then subjected to RapidFire™ MS analysis on an Agilent RapidFire 300 coupled to an Agilent 6460 triple-quadrupole mass spectrometer. Analytes were retained on a C4 (type A) cartridge using the following solvents and flow rates: • Pump 1—H2O with 5 mM NH4OAc at 2.0 mL/min, • Pump 2—MeOH/H2O (90/10) at 1.5 mL/min, • Pump 3—MeOH/H2O (90/10) at 0.5 mL/min, and • Pump 4—ACN (organic)/H2O (aqueous). Substrate and product of the reaction were detected in negative mode ESI-MS/MS by MRM (multiple reaction monitoring) of transitions 606.0/385.0 (UDP-GlcNAc substrate) and 776.2/385.0 (UDP-3-O—(R-3-hydroxydecanoyl)-GlcNAc product, for P. aeruginosa LpxA assay) or 832.2/385.0 (UDP-3-O—(R-3-hydroxymyristoyl)-GlcNAc product, for E. coli LpxA assay).
For IC50 determinations, peak areas of the substrate and product were compared to compute the proportion of product formed by the LpxA enzyme at each compound concentration.

Test [3] relates to Wild-type P. aeruginosa PAO1. Nature of the test: Broth microdilution MIC, wild-type P. aeruginosa PAO1. Format: cell-based. To be noted: Pseudomonas aeruginosa; wild-type P. aeruginosa PAO1, 37° C., 18 h; read-out: PAO1 WT MIC.

Turning to `Nc1nnc(CN(Cc2ccc(S(N)(=O)=O)cc2F)C(=O)CSc2cc(F)ccc2Cl)o1` [compound 24], the MIC with P. aeruginosa LESB58 is 16 to 64 µg/mL (≈ 31.7 to 127 µM); in the test with P. aeruginosa PAO397 it was below 1 µg/mL; in test [1], 1 to 16 µg/mL (≈ 1.98 to 31.7 µM); in test [3], above 64 µg/mL. For the same compound, the IC50 in test [2] is 20 to 100 nM.

Consider `N#Cc1ccc(CN(Cc2nnc(N)o2)C(=O)COc2ccccc2Br)cc1` [compound 35], for which the MIC in the test with P. aeruginosa PAO397 is below 1 µg/mL; in test [1], 1 to 16 µg/mL (≈ 2.26 to 36.2 µM); in test [3], above 64 µg/mL. Also, the half-inhibitory concentration (IC50) in test [2] is 20 to 100 nM.

`Cc1cc(C#N)ccc1CN(Cc1nnc(N)o1)C(=O)CSc1ccccc1Cl` [compound 48]: the values for the MIC (in the test with P. aeruginosa PAO397; in test [1]; in test [3]) were below 1 µg/mL, 16 to 64 µg/mL (≈ 37.4 to 150 µM) and above 64 µg/mL, respectively. In test [2], the 50% inhibitory concentration (IC50) lay in the range of 20 to 100 nM.

As for `N#Cc1ccc(CN(Cc2nnc(N)o2)C(=O)CSc2cc(OCCN)ccc2Cl)c(F)c1` [Compound No. 60, 2-[5-(2-Aminoethoxy)-2-chloro-phenyl]sulfanyl-N-[(5-amino-1,3,4-oxadiazol-2-yl)methyl]-N-[(4-cyano-2-fluoro-phenyl)methyl]acetamide], the minimal inhibitory concentration (MIC) is below 1 µg/mL in the test on P. aeruginosa PAO397, 1 to 16 µg/mL (≈ 2.04 to 32.6 µM) in test [1] and above 64 µg/mL in test [3]. The half-maximal inhibitory concentration (IC50) in test [2] is 100 to 1000 nM.

As to `N#Cc1ccc(CN(Cc2nnc(N)o2)C(=O)CSc2ncccc2Cl)c(F)c1` [compound 58], the MIC is above 64 µg/mL with P. aeruginosa LESB58, below 1 µg/mL in the test with P. aeruginosa PAO397, 1 to 16 µg/mL (≈ 2.31 to 37 µM) in test [1] and above 64 µg/mL in test [3]. Also, the IC50 in test [2] is 20 to 100 nM.

With `CCc1ccccc1SCC(=O)N(Cc1ccc(C#N)cc1)Cc1nnc(N)[nH]1` [Compound No. 70, N-[(5-Amino-4H-1,2,4-triazol-3-yl)methyl]-N-[(4-cyanophenyl)methyl]-2-(2-ethylphenyl)sulfanyl-acetamide], the minimal inhibitory concentration (MIC) with P. aeruginosa PAO397 is below 1 µg/mL; in test [1], 1 to 16 µg/mL (≈ 2.46 to 39.4 µM); in test [3], above 64 µg/mL. The IC50 in test [2] lay in the range of 20 to 100 nM.

With `N#Cc1ccc(CN(Cc2nnc(N)o2)C(=O)CSc2cccc(F)c2Cl)c(F)c1` [Compound No. 28, N-[(5-Amino-1,3,4-oxadiazol-2-yl)methyl]-2-(2-chloro-3-fluoro-phenyl)sulfanyl-N-[(4-cyano-2-fluoro-phenyl)methyl]acetamide], the minimum inhibitory concentration (MIC) in the test on P. aeruginosa PAO397 is below 1 µg/mL; in test [1], 1 to 16 µg/mL (≈ 2.22 to 35.6 µM); in test [3], 16 to 64 µg/mL (≈ 35.6 to 142 µM). Also, the IC50 in test [2] is below 20 nM.

Take `Cc1nnc(CN(Cc2ccc(C#N)cc2)C(=O)CSc2ccccc2Cl)[nH]1` [compound 74]: the minimal inhibitory concentration (MIC) in the test on P. aeruginosa PAO397 was 1 to 16 µg/mL (≈ 2.43 to 38.8 µM); in test [1], 16 to 64 µg/mL (≈ 38.8 to 155 µM); in test [3], above 64 µg/mL. For the same compound, in test [2], the IC50 lay within 100 to 1000 nM.

`N#Cc1ccc(CN(Cc2nnc(N)o2)C(=O)CSc2cc(CO)ccc2Cl)cc1` [compound 45]: the MIC in the test on P. aeruginosa PAO397 is below 1 µg/mL; in test [1], 1 to 16 µg/mL (≈ 2.25 to 36 µM); in test [3], above 64 µg/mL. In addition, in test [2], the half-maximal inhibitory concentration (IC50) was in the range of 20 to 100 nM.

`N#Cc1ccc(CN(Cc2nnc(N)o2)C(=O)CSc2cc(F)ccc2Cl)c(F)c1` [compound 30]: the figures for the MIC (in the test on P. aeruginosa PAO397; in test [1]; in test [3]) were below 1 µg/mL, 1 to 16 µg/mL (≈ 2.22 to 35.6 µM) and 16 to 64 µg/mL (≈ 35.6 to 142 µM), respectively. In addition, the half-maximal inhibitory concentration (IC50) in test [2] is below 20 nM.

`N#Cc1ccc(CN(Cc2nnc(N)o2)C(=O)COc2ccccc2C(F)(F)F)cc1` [compound 33]: the MIC with P. aeruginosa PAO397 was below 1 µg/mL; in test [1] it was 16 to 64 µg/mL (≈ 37.1 to 148 µM); in test [3] it was above 64 µg/mL. For the same compound, in test [2], the concentration for half-maximal inhibition (IC50) is 20 to 100 nM.

In the case of `Cc1ccccc1SCC(=O)N(Cc1ccc(C#N)nc1)Cc1nnc(N)o1` [compound 15], the minimal inhibitory concentration (MIC) is 1 to 16 µg/mL (≈ 2.54 to 40.6 µM) in the test on P. aeruginosa PAO397, 1 to 16 µg/mL (≈ 2.54 to 40.6 µM) in test [1] and above 64 µg/mL in test [3]. In addition, in test [2], the IC50 lay in the range of 100 to 1000 nM.

`Cc1noc(CN(Cc2ccc(C#N)cc2)C(=O)CSc2ccccc2Cl)n1` [Compound No. 68, 2-(2-Chlorophenyl)sulfanyl-N-[(4-cyanophenyl)methyl]-N-[(3-methyl-1,2,4-oxadiazol-5-yl)methyl]acetamide]: the MIC with P. aeruginosa PAO397 is 1 to 16 µg/mL (≈ 2.42 to 38.8 µM); in test [1] it was 16 to 64 µg/mL (≈ 38.8 to 155 µM); in test [3], above 64 µg/mL. In addition, the IC50 in test [2] is 20 to 100 nM.
